Publication PMC6072100, “Exploring the links between peptoid antibacterial activity and toxicity” (MedChemComm, 2017)
Square brackets hold non-standard residues; d marks the D form. Peptide text beside a SMILES is read from it. Nspe = C[C@H](NCC(=O)O)c1ccccc1; NhArg = N=C(N)NCCCCNCC(=O)O; NPentylGly = CCCCCNCC(=O)O

Tests used:
[1] = Cytotoxicity assay with HepG2 (alamarBlue); format: cell-based, human; details: human, HepG2 cells
Experimental: The activity of our peptoid library was assessed against both bacterial and mammalian cells to gain a broader understanding of the factors that lead to effective and selective antimicrobial peptoids. We screened for broad-spectrum antibacterial activity against Gram-negative (Escherichia coli and Pseudomonas aeruginosa) and Gram-positive (Staphylococcus aureus and S. epidermidis) bacteria. The toxicity of the library was also assessed against two mammalian cell lines; HaCaT spontaneously transformed aneuploid keratinocytes were employed to model toxicity against human skin cells and HepG2, a cell line derived from a human liver carcinoma, were used as a study on polarised human hepatocytes. Detailed methods for these assays can be found in the ESI. ^‡ […]
Please note – ED50, the median effective dose, was defined as the dose that kills 50% of cells.
Cytotoxicity analyses were performed in 96-well plates (Costar, Fisher Scientific) using alamarBlue® (Invitrogen) for cell viability detection using a modified protocol as described previously. HepG2 or HaCaT cells were subcultured at 37 °C, 5% CO2 in DMEM high glucose supplemented with heat-inactivated foetal bovine sera (FBS, 10%; Biosera Ltd) and penicillin/streptomycin (P/S, 1%). Cells were counted using a Neubauer Improved Haemocytometer. HepG2 cells were seeded 1 day prior to treatment in 96 well plates at a concentration of 2 × 10^5 cells per mL in 100 μL of medium (2 × 10^4 cells per well). Then cells were pre-incubated with the compounds in triplicate in a dilution series in triplicate from 2–100 μM (5 mM stock solutions in DMSO diluted from 100 μM to 3 μM; untreated cells with DMSO as a negative control) in 50 μl of the media for 1 hour. Afterwards, 40 μL were removed from each well before the addition of 90 μL of the media, followed by incubation for 24 hours at 37 °C, 5% CO2. Then, 10 μL of alamarBlue® (Invitrogen) was added to each well before a 2 hour incubation prior to assessing cell viability using a fluorescent plate reader (Biotek; Ex 560 nm/Em 600 nm). All data were measured in triplicate on a minimum of two occasions to ensure a robust data set was collected. The ED50 values were calculated from the dose response results achieved from the serial dilutions.
Cytotoxicity assay with HepG2
Cytotoxicity analyses were performed in 96-well plates (Costar, Fisher Scientific) using alamarBlue® (Invitrogen) for cell viability detection using a modified protocol as previously described. The HepG2 cells were grown at 37 °C, 5% CO2 in DMEM high glucose supplemented with heat-inactivated foetal bovine sera (FBS, 10%; Biosera Ltd) and penicillin/streptomycin (P/S, 1%). Cells were counted using a Neubauer Improved Haemocytometer. HepG2 cells were seeded 1 day prior to treatment in 96 well plates at a concentration of 2x10^5 cells/mL in 100 µL of medium (2x10^4 cells/well). Then cells were pre-incubated with the compounds in triplicate (5 mM stock solutions in DMSO diluted from 100 µM to 3 µM; untreated cells with DMSO as a negative control) in 50 µl of the media for 1 hour.
Afterwards, 40 µL were removed from each well before the addition of 90 µL of the media, followed by incubation for 24 hours at 37 °C, 5% CO2. Then, 10 µL of alamarBlue® (Invitrogen) was added to each well before a 2 hour incubation prior to assessing cell viability using a fluorescent plate reader (Biotek; Ex 560 nm / Em 600 nm). All data was measured in triplicate on a minimum of two occasions to ensure a robust data set was collected. The ED50 values were calculated from the dose response results achieved from the serial dilutions. […]
5% CO2 in DMEM high glucose supplemented with heat-inactivated foetal bovine sera (FBS, 10%; Biosera Ltd) and penicillin/streptomycin (P/S, 1%). Cells were counted using a Neubauer […]
Empty wells were filled with 100 µL PBS. After 24 hours, cells were incubated with the compounds in a dilution series in triplicate from 2 – 100 µM (5 mM stock solutions in DMSO […]

[2] = Skin cell toxicity assay with HaCaT (alamarBlue); format: cell-based, human; details: human, HaCaT cells (keratinocytes)
In short: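 HaCaT cells seeded at 2x10^4 per well 24 hours before 1-hour exposure to a 2–100 µM triplicate dilution series in DMEM high glucose with 10% FBS at 37 °C, 5% CO2. Viability assessed with alamarBlue; ED50 defined as dose killing 50% of cells, derived from dose-response data.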

[3] = dose that kills 50% of cells, 2–100 μM, 1 h with compound then 24 h, alamarBlue, read-out: ED50 HepG2
[4] = dose that kills 50% of cells, 2–100 μM, 1 h with compound then 24 h, alamarBlue, read-out: ED50 HaCaT

SMILES: C[C@@H](c1ccccc1)N(CC(N)=O)C(=O)CN(Cc1ccc(F)cc1)C(=O)CN(CCCCN)C(=O)CN(C(=O)CN(Cc1ccc(F)cc1)C(=O)CN(CCCCN)C(=O)CN(C(=O)CN(Cc1ccc(F)cc1)C(=O)CN(CCCCN)C(=O)CN(C(=O)CN(Cc1ccc(F)cc1)C(=O)CNCCCCN)[C@@H](C)c1ccccc1)[C@@H](C)c1ccccc1)[C@@H](C)c1ccccc1 [Peptoid 26, (NLysNpfbNspe)4]
- CC50 at 24 h ([1]; ED50 HepG2): 26 µM
- CC50 at 24 h ([2]; ED50 HaCaT): 20 µM

SMILES: C[C@@H](c1ccccc1)N(CC(N)=O)C(=O)CN(Cc1ccc(F)cc1)C(=O)CN(CCCCN)C(=O)CN(C(=O)CN(Cc1ccc(F)cc1)C(=O)CN(CCCCN)C(=O)CN(C(=O)CN(Cc1ccc(F)cc1)C(=O)CNCCCCN)[C@@H](C)c1ccccc1)[C@@H](C)c1ccccc1 [Peptoid 27, (NLysNpfbNspe)3]
- CC50 at 24 h [1, 3]: 36 µM
- CC50 at 24 h [2, 4]: 52 µM

SMILES: C[C@@H](c1ccccc1)N(CC(N)=O)C(=O)CN(C(=O)CN(CCCCN)C(=O)CN(Cc1ccc(F)cc1)C(=O)CN(Cc1ccc(F)cc1)C(=O)CN(CCCCN)C(=O)CN(C(=O)CN(C(=O)CN(CCCCN)C(=O)CN(Cc1ccc(F)cc1)C(=O)CN(Cc1ccc(F)cc1)C(=O)CNCCCCN)[C@@H](C)c1ccccc1)[C@@H](C)c1ccccc1)[C@@H](C)c1ccccc1 [Peptoid 28, [(NLysNpfbNpfb)(NLysNspeNspe)]2]
- CC50 at 24 h ([1]; ED50 HepG2): 55 µM
- CC50 at 24 h ([2]; ED50 HaCaT): 100 µM

SMILES: C[C@@H](c1ccccc1)N(CC(N)=O)C(=O)CN(C(=O)CN(CCCCN)C(=O)CN(Cc1ccc(F)cc1)C(=O)CN(Cc1ccc(F)cc1)C(=O)CN(CCCCN)C(=O)CN(C(=O)CN(C(=O)CNCCCCN)[C@@H](C)c1ccccc1)[C@@H](C)c1ccccc1)[C@@H](C)c1ccccc1 [Peptoid 29, (NLysNspeNspe)(NLysNpfbNpfb)(NLysNspeNspe)]
- CC50 at 24 h [1, 3]: 43 µM
- CC50 at 24 h [2, 4]: 65 µM

SMILES: CCCCCNCC(=O)N(CC(=O)N(CC(=O)N(CCCCN)CC(=O)N(CC(=O)N(CC(=O)N(CCCCN)CC(=O)N(CC(=O)N(CC(=O)N(CCCCN)CC(=O)N(CC(=O)N(CC(N)=O)[C@@H](C)c1ccccc1)[C@@H](C)c1ccccc1)[C@@H](C)c1ccccc1)[C@@H](C)c1ccccc1)[C@@H](C)c1ccccc1)[C@@H](C)c1ccccc1)[C@@H](C)c1ccccc1)[C@@H](C)c1ccccc1 [Peptoid 30, (NamyNspeNspe)[(NLysNspeNspe)]3]
- CC50 at 24 h ([1]; ED50 HepG2): 15 µM
- CC50 at 24 h ([2]; ED50 HaCaT): 12 µM

SMILES: CCCCCNCC(=O)N(CC(=O)N(CC(=O)N(CCCCC)CC(=O)N(CC(=O)N(CC(=O)N(CCCCN)CC(=O)N(CC(=O)N(CC(=O)N(CCCCN)CC(=O)N(CC(=O)N(CC(N)=O)[C@@H](C)c1ccccc1)[C@@H](C)c1ccccc1)[C@@H](C)c1ccccc1)[C@@H](C)c1ccccc1)[C@@H](C)c1ccccc1)[C@@H](C)c1ccccc1)[C@@H](C)c1ccccc1)[C@@H](C)c1ccccc1 [Peptoid 31, (NamyNspeNspe)2(NLysNspeNspe)2]
- CC50 at 24 h ([1]; ED50 HepG2): 18 µM
- CC50 at 24 h ([2]; ED50 HaCaT): 20 µM

SMILES: CCCCCN(CC(=O)N(CC(=O)N(CC(=O)N(CCCCN)CC(=O)N(CC(=O)N(CC(N)=O)[C@@H](C)c1ccccc1)[C@@H](C)c1ccccc1)[C@@H](C)c1ccccc1)[C@@H](C)c1ccccc1)C(=O)CN(C(=O)CN(C(=O)CN(CCCCN)C(=O)CN(C(=O)CN(C(=O)CNCCCCN)[C@@H](C)c1ccccc1)[C@@H](C)c1ccccc1)[C@@H](C)c1ccccc1)[C@@H](C)c1ccccc1 [Peptoid 32, (NLysNspeNspe)2(NamyNspeNspe)(NLysNspeNspe)]
- CC50 at 24 h ([1]; ED50 HepG2): 22 µM
- CC50 at 24 h ([2]; ED50 HaCaT): 20 µM

SMILES: C[C@@H](c1ccccc1)N(CC(N)=O)C(=O)CN(C(=O)CN(CCCCNC(=N)N)C(=O)CN(C(=O)CN(C(=O)CN(CCCCNC(=N)N)C(=O)CN(C(=O)CN(C(=O)CN(CCCCNC(=N)N)C(=O)CN(C(=O)CN(C(=O)CNCCCCNC(=N)N)[C@@H](C)c1ccccc1)[C@@H](C)c1ccccc1)[C@@H](C)c1ccccc1)[C@@H](C)c1ccccc1)[C@@H](C)c1ccccc1)[C@@H](C)c1ccccc1)[C@@H](C)c1ccccc1 [Peptoid 34, (NhArgNspeNspe)4] (H-[NhArg][Nspe][Nspe][NhArg][Nspe][Nspe][NhArg][Nspe][Nspe][NhArg][Nspe][Nspe]-NH2)
- CC50 at 24 h ([1]; ED50 HepG2): 12 µM
- CC50 at 24 h ([2]; ED50 HaCaT): 11 µM

SMILES: CCCCCNCC(=O)N(CC(=O)N(CC(=O)N(CCCCNC(=N)N)CC(=O)N(CC(=O)N(CC(=O)N(CCCCC)CC(=O)N(CC(=O)N(CC(=O)N(CCCCNC(=N)N)CC(=O)N(CC(=O)N(CC(N)=O)[C@@H](C)c1ccccc1)[C@@H](C)c1ccccc1)[C@@H](C)c1ccccc1)[C@@H](C)c1ccccc1)[C@@H](C)c1ccccc1)[C@@H](C)c1ccccc1)[C@@H](C)c1ccccc1)[C@@H](C)c1ccccc1 [Peptoid 40, [(NamyNspeNspe)(NhArgNspeNspe)]2] (H-[NPentylGly][Nspe][Nspe][NhArg][Nspe][Nspe][NPentylGly][Nspe][Nspe][NhArg][Nspe][Nspe]-NH2)
- CC50 at 24 h ([1]; ED50 HepG2): 24 µM
- CC50 at 24 h ([2]; ED50 HaCaT): 31 µM
